Laboratory results published in US20230310428A1, “EGFR INHIBITOR AND PREPARATION METHOD AND USE THEREOF” (HONGYUN BIOTECH CO., LTD., priority 2020, published 2023).
pIC50: −log10 of the molar value.

Tests used:
Assay in all cases: Growth inhibitory activity of compounds on BaF3 cell lines stably transfected with kinase (MTS, 48 h)
Format in all cases: cell-based
[1] = biological target: T1, various mutants of kinase EGFR (BaF3 cell lines stably transfected with kinase) (Homo sapiens, UniProt P00533, T790M/C797S, form not given); conditions: BaF3 cells stably transfected with EGFR Δ19Del/T790M/C797S, read-out: IC50, growth inhibition, Δ19Del/T790M/C797S
T1 construct: other: BaF3 cells stably transfected with EGFR Δ19Del/T790M/C797S; MTS, 48; other: BaF3 cell line stably transfected with EGFR Δ19Del/T790M/C7
T1 sequence (P00533 with tags, fused parts or gaps DEL746-750/T790M/C797S, form open): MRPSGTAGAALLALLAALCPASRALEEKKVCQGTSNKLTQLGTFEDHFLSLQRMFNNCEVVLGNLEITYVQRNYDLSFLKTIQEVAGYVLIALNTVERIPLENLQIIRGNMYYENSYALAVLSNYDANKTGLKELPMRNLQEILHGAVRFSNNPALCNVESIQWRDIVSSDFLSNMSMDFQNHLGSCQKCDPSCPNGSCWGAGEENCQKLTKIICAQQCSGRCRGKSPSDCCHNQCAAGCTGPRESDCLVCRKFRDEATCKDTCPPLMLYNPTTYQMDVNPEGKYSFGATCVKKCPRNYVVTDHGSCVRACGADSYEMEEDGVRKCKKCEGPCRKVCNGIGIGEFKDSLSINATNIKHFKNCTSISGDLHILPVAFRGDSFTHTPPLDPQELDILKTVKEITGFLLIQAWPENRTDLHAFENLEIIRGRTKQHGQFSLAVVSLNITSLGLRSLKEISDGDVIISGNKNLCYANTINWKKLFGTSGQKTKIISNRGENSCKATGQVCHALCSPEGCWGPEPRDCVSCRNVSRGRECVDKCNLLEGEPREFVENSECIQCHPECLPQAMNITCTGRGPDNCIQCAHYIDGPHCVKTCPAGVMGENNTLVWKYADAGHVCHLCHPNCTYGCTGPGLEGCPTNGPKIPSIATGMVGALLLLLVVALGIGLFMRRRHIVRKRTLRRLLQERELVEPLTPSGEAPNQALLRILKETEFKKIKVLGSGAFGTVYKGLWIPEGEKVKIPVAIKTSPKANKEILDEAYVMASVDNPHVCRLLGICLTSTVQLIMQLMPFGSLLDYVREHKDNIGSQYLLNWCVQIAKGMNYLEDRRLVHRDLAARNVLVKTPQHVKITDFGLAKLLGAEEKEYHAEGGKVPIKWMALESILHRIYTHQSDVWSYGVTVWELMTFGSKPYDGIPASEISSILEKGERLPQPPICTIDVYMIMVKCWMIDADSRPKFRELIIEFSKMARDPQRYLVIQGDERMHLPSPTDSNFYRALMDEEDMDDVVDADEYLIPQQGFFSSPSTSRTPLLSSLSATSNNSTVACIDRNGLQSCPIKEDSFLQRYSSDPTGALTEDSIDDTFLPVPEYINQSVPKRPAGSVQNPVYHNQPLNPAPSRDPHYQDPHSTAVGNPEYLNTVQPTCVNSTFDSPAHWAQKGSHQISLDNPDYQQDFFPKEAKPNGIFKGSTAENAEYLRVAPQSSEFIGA
Description: (§1) The activity of compounds against various mutants of kinase EGFR was evaluated by their effect of inhibiting growth of BaF3 cell lines stably transfected with kinase. The specific test method was given as follows:
(§2) 1) Culture medium: DMEM (Dulbecco’s modified eagle medium) or RPMI 1640 (containing 10% fetal bovine serum, 100 µg/mL ampicillin, 100 µg/mL streptomycin).
(§3) 2) Reagent: MTS reaction solution (containing 2 mg/mL of MTS [3-(4,5-dimethylthiazol-2-yl)-5-(3-carboxymethoxyphenyl)-2-(4-sulfophenyl)-2H-tetrazoliu m, inner Salt]; 100 µg/mL of PES ([…])).
(§4) 3) Compound test: cells were incubated into a 96-well culture plate, the volume of cytosol was 90 µL, and then 10 µL of the compound at each gradient concentration was added. That is, the highest concentration was 10 µM, which was diluted stepwise by ⅓, and 8 concentration points were set in total; 0.1% DMSO (dimethyl sulfoxide) was contained in the system. The cell plate with uniformly mixed compound was cultured in a cell culture incubator (37° C.; 5% CO2) for 48 h, then 20 µL of MTS reaction solution was added, uniformly mixed and incubated in the cell culture incubator (37° C.; 5% CO2) for 1-4 h. OD values at 490 nm were measured by a microplate reader (VARIOSKAN FLASH, Thermo). Two parallels were set in each group of experiments, with 0.1% (a final concentration) DMSO as a negative control, and a culture medium without cells and compounds as a blank control. The cell growth inhibition rate was calculated by the following formula: […]
(§5) 4) IC50 calculation: The semi-inhibitory concentration of the compounds acting on cells was calculated using GradPad Prism 5 software according to the measured cell growth inhibition rate.

[2] = biological target: T2, various mutants of kinase EGFR (BaF3 cell lines stably transfected with kinase) (Homo sapiens, UniProt P00533, T790M, form not given); conditions: BaF3 cells stably transfected with EGFR Δ19Del/T790M, read-out: IC50, growth inhibition, Δ19Del/T790M
T2 construct: other: BaF3 cells stably transfected with EGFR Δ19Del/T790M; MTS, 48 h; other: BaF3 cell line stably transfected with EGFR Δ19Del/T790M; MTS, 48
T2 sequence (P00533 with tags, fused parts or gaps DEL746-750/T790M, form open): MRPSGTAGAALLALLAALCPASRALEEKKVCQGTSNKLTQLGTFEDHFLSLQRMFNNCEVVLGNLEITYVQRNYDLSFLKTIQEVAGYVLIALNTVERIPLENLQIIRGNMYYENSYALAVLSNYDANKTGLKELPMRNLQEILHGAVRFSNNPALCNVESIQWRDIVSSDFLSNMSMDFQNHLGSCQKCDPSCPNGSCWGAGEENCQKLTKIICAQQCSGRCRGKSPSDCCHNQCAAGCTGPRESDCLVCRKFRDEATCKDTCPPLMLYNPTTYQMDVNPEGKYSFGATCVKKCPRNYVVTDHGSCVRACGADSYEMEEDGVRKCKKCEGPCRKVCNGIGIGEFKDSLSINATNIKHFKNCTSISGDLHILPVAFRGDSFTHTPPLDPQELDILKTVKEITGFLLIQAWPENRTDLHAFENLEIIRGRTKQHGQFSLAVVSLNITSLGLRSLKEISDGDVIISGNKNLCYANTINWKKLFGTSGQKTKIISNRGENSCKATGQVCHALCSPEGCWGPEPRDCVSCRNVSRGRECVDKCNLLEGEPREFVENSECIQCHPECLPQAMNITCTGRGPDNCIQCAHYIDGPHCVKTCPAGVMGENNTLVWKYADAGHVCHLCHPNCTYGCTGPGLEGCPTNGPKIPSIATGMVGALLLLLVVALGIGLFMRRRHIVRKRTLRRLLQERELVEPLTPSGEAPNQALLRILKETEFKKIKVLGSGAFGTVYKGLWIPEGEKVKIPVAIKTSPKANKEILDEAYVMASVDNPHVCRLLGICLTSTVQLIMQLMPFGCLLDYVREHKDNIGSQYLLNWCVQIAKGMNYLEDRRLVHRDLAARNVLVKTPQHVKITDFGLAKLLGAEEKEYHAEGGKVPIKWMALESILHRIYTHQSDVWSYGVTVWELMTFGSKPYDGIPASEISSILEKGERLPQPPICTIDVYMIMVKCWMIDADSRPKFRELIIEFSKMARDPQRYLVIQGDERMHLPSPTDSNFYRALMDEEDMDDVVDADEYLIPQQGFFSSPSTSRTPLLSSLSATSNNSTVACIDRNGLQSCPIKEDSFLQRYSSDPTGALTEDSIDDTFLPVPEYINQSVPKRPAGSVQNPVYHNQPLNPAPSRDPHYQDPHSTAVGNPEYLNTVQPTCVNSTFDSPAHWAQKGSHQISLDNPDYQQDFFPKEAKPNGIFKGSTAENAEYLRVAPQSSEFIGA
Description: as §1, §2, §3, §4, §5

[3] = biological target: T3, various mutants of kinase EGFR (BaF3 cell lines stably transfected with kinase) (Homo sapiens, UniProt P00533, C797S/L858R/T790M); conditions: BaF3 cells stably transfected with EGFR L858R/T790M/C797S, read-out: IC50, growth inhibition, L858R/T790M/C797S
T3 construct: expressed in transfected cells; host or cells: BaF3
Description: as §1, §2, §3, §4, §5

[4] = biological target: T4, various mutants of kinase EGFR (BaF3 cell lines stably transfected with kinase) (Homo sapiens, UniProt P00533, L858R/T790M); conditions: BaF3 cells stably transfected with EGFR L858R/T790M, read-out: IC50, growth inhibition, L858R/T790M
T4 construct: expressed in transfected cells; host or cells: BaF3
T4 sequence (P00533 25-1210 T790M/L858R): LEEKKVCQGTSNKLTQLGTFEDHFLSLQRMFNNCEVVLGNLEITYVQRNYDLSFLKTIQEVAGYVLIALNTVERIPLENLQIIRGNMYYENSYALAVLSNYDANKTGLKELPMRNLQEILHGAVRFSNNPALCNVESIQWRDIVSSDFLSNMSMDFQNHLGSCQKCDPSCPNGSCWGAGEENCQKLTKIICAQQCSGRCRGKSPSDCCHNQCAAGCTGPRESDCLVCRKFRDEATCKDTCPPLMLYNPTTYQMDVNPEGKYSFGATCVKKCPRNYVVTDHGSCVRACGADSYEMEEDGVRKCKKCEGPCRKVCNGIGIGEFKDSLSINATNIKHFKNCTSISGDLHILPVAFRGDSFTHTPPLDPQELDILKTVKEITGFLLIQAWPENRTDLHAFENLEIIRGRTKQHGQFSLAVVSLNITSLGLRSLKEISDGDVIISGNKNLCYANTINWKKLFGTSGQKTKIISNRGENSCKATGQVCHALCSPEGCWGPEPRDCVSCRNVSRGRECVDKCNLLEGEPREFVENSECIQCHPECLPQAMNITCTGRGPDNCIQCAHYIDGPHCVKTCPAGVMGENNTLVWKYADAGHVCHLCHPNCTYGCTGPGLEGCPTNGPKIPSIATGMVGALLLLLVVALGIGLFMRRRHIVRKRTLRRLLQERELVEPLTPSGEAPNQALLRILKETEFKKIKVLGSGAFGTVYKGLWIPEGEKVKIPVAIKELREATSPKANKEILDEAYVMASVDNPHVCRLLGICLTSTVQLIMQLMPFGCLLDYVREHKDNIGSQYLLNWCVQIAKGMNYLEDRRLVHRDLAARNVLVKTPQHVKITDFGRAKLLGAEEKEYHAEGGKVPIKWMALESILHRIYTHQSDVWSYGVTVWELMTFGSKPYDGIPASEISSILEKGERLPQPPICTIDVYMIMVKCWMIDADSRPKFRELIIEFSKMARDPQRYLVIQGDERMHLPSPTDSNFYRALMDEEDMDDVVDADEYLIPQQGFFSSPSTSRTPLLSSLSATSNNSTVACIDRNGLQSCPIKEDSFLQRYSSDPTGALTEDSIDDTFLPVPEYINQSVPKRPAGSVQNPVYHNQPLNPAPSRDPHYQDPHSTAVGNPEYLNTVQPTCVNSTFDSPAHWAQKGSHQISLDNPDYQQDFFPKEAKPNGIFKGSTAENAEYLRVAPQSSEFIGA
Description: as §1, §2, §3, §4, §5

[5] = biological target: T5, various mutants of kinase EGFR (BaF3 cell lines stably transfected with kinase) (Homo sapiens, UniProt P00533, L858R); conditions: BaF3 cells stably transfected with EGFR L858R, read-out: IC50, growth inhibition, L858R
T5 construct: expressed in transfected cells; host or cells: BaF3
Description: as §1, §2, §3, §4, §5

[6] = biological target: T6, various mutants of kinase EGFR (BaF3 cell lines stably transfected with kinase) (Homo sapiens, UniProt P00533); conditions: BaF3 cells stably transfected with EGFR Δ19Del, read-out: IC50, growth inhibition, Δ19Del
T6 construct: other: BaF3 cells stably transfected with EGFR Δ19Del; MTS, 48 h; other: BaF3 cell line stably transfected with EGFR Δ19Del
T6 sequence (P00533 with tags, fused parts or gaps DEL746-750): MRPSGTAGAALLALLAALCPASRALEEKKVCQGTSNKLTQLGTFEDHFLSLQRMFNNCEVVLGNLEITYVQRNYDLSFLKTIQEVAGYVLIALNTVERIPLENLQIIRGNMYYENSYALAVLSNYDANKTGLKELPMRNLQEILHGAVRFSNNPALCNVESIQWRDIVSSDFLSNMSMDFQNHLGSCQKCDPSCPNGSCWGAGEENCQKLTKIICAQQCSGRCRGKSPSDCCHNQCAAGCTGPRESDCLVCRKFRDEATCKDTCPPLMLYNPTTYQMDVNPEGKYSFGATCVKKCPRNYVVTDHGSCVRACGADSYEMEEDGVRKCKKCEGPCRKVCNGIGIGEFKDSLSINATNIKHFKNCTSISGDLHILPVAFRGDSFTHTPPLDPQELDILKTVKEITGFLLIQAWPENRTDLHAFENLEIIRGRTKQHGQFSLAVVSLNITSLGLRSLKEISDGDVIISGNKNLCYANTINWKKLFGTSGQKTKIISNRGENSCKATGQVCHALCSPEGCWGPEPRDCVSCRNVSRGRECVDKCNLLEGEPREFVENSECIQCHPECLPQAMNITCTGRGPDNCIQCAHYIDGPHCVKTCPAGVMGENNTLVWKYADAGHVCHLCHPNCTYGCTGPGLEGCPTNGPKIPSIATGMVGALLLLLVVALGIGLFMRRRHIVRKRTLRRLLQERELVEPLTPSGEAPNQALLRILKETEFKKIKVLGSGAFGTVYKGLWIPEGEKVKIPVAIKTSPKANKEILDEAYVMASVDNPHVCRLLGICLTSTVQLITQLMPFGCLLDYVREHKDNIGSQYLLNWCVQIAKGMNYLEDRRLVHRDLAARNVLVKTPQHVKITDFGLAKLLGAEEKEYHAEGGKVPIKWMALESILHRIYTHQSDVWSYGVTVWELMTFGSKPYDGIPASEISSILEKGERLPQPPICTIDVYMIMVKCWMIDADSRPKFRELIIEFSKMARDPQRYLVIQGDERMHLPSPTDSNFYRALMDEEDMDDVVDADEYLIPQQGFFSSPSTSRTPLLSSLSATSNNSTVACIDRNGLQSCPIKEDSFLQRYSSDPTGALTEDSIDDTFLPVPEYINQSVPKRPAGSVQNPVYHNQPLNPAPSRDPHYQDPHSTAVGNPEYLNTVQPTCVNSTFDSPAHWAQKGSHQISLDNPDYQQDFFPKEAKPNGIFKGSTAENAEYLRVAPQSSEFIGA
Description: as §1, §2, §3, §4, §5

pIC50 [1]	pIC50 [2]	pIC50 [3]	pIC50 [4]	pIC50 [5]	pIC50 [6]	Compound
≥ 7.30	≥ 7.30	≥ 7.30	≥ 7.30	6.30 to 7.30	6.30 to 7.30	COc1ccc(N2CCC(O)CC2)cc1Nc1ncc(Br)c(Nc2ccc3nccnc3c2N(C)S(C)(=O)=O)n1 [Compound I-77]
6.30 to 7.30	6.30 to 7.30	≥ 7.30	≥ 7.30	6.30 to 7.30	6.30 to 7.30	CN1CCN(C2CCN(c3cccc(Nc4ncc(Br)c(Nc5ccc6nccnc6c5N(C)S(C)(=O)=O)n4)c3)CC2)CC1 [Compound I-78]
5.60 to 6.30	6.30 to 7.30	6.30 to 7.30	≥ 7.30	6.30 to 7.30	6.30 to 7.30	CN1CCN(C(=O)c2cccc(Nc3ncc(Br)c(Nc4ccc5nccnc5c4N(C)S(C)(=O)=O)n3)c2)CC1 [Compound I-80]
5.60 to 6.30	6.30 to 7.30	6.30 to 7.30	6.30 to 7.30	5.60 to 6.30	6.30 to 7.30	COc1ccc(C(=O)N2CCN(C)CC2)cc1Nc1ncc(Br)c(Nc2ccc3nccnc3c2N(C)S(C)(=O)=O)n1 [Compound I-81]
6.30 to 7.30	6.30 to 7.30	6.30 to 7.30	≥ 7.30	6.30 to 7.30	6.30 to 7.30	CN1CCN(Cc2cc(Nc3ncc(Br)c(Nc4ccc5nccnc5c4N(C)S(C)(=O)=O)n3)cc(C(F)(F)F)c2)CC1 [Compound I-82]
5.60 to 6.30	5.60 to 6.30	5.60 to 6.30	6.30 to 7.30	6.30 to 7.30	6.30 to 7.30	COc1ccc(CN2CCN(C)CC2)cc1Nc1ncc(Br)c(Nc2ccc3nccnc3c2N(C)S(C)(=O)=O)n1 [Compound I-83]
6.30 to 7.30	6.30 to 7.30	6.30 to 7.30	≥ 7.30	≥ 7.30	6.30 to 7.30	CN1CCN(Cc2cccc(Nc3ncc(Br)c(Nc4ccc5nccnc5c4N(C)S(C)(=O)=O)n3)c2)CC1 [Compound I-84]
6.30 to 7.30	6.30 to 7.30	6.30 to 7.30	6.30 to 7.30	6.30 to 7.30	6.30 to 7.30	COc1ccc(NC(=O)CN(C)C)cc1Nc1ncc(Br)c(Nc2ccc3nccnc3c2N(C)S(C)(=O)=O)n1 [Compound I-85]
≥ 7.30	6.30 to 7.30	≥ 7.30	6.30 to 7.30	≥ 7.30	≥ 7.30	CN1CCc2cc(F)c(Nc3ncc(Br)c(Nc4ccc5nccnc5c4N(C)S(C)(=O)=O)n3)cc2C1 [Compound I-87]
5.60 to 6.30	6.30 to 7.30	6.30 to 7.30	6.30 to 7.30	6.30 to 7.30	5.60 to 6.30	COc1cc2c(cc1Nc1ncc(Br)c(Nc3ccc4nccnc4c3N(C)S(C)(=O)=O)n1)CN(C)CC2 [Compound I-89]
5.60 to 6.30	5.60 to 6.30	6.30 to 7.30	5.60 to 6.30	5.60 to 6.30	6.30 to 7.30	CN1CCc2cc(OC(F)(F)F)c(Nc3ncc(Br)c(Nc4ccc5nccnc5c4N(C)S(C)(=O)=O)n3)cc2C1 [Compound I-90]
6.30 to 7.30	6.30 to 7.30	≥ 7.30	6.30 to 7.30	6.30 to 7.30	6.30 to 7.30	Cc1cc2c(cc1Nc1ncc(Br)c(Nc3ccc4nccnc4c3N(C)S(C)(=O)=O)n1)CN(C)CC2 [Compound I-92]
≥ 7.30	≥ 7.30	≥ 7.30	≥ 7.30	≥ 7.30	≥ 7.30	CC1CN(C)CCc2ccc(Nc3ncc(Br)c(Nc4ccc5nccnc5c4N(C)S(C)(=O)=O)n3)cc21 (stereo not drawn) [Compound I-93]
≥ 7.30	≥ 7.30	≥ 7.30	≥ 7.30	≥ 7.30	≥ 7.30	CCN(c1c(Nc2nc(Nc3cc(C)c(N4CCC(N5CCN(C)CC5)CC4)cc3OC)ncc2Br)ccc2nccnc12)S(C)(=O)=O [Compound I-94]
≥ 7.30	≥ 7.30	≥ 7.30	≥ 7.30	≥ 7.30	≥ 7.30	CCc1cc(Nc2ncc(Br)c(Nc3ccc4nccnc4c3N(CC)S(C)(=O)=O)n2)c(OC)cc1N1CCC(N2CCN(C)CC2)CC1 [Compound I-95]
≥ 7.30	6.30 to 7.30	≥ 7.30	6.30 to 7.30	6.30 to 7.30	6.30 to 7.30	CCc1cc(Nc2ncc(Br)c(Nc3ccc4nccnc4c3N(CC)S(C)(=O)=O)n2)c(OC(F)(F)F)cc1N1CCC(N2CCN(C)CC2)CC1 [Compound I-96]
≥ 7.30	≥ 7.30	≥ 7.30	≥ 7.30	≥ 7.30	≥ 7.30	CCc1cc(Nc2ncc(Br)c(Nc3ccc4nccnc4c3N(CC)S(C)(=O)=O)n2)c(OC)cc1N1CCC(N(C)C)CC1 [Compound I-97]
≥ 7.30	≥ 7.30	≥ 7.30	≥ 7.30	≥ 7.30	6.30 to 7.30	CCc1cc(Nc2ncc(Br)c(Nc3ccc4nccnc4c3N(CC)S(C)(=O)=O)n2)c(OC)cc1N1CCC(N(C)C)C1 (stereo not drawn) [Compound I-98]
≥ 7.30	≥ 7.30	≥ 7.30	≥ 7.30	≥ 7.30	≥ 7.30	CCS(=O)(=O)N(C)c1c(Nc2nc(Nc3cc(C)c(N4CCC(N5CCN(C)CC5)CC4)cc3OC)ncc2Br)ccc2nccnc12 [Compound I-99]
≥ 7.30	≥ 7.30	≥ 7.30	≥ 7.30	≥ 7.30	≥ 7.30	CCc1cc(Nc2ncc(Br)c(Nc3ccc4nccnc4c3N(C)S(=O)(=O)CC)n2)c(OC)cc1N1CCC(N2CCN(C)CC2)CC1 [Compound I-100]
≥ 7.30	≥ 7.30	≥ 7.30	6.30 to 7.30	6.30 to 7.30	6.30 to 7.30	CCc1cc(Nc2ncc(Br)c(Nc3ccc4nccnc4c3N(C)S(=O)(=O)CC)n2)c(OC(F)(F)F)cc1N1CCC(N2CCN(C)CC2)CC1 [Compound I-101]
≥ 7.30	≥ 7.30	≥ 7.30	≥ 7.30	≥ 7.30	≥ 7.30	CCc1cc(Nc2ncc(Br)c(Nc3ccc4nccnc4c3N(C)S(=O)(=O)CC)n2)c(OC)cc1N1CCC(N(C)C)CC1 [Compound I-102]
≥ 7.30	≥ 7.30	≥ 7.30	≥ 7.30	≥ 7.30	≥ 7.30	CCc1cc(Nc2ncc(Br)c(Nc3ccc4nccnc4c3N(C)S(=O)(=O)C3CC3)n2)c(OC)cc1N1CCC(N2CCN(C)CC2)CC1 [Compound I-105]
≥ 7.30	≥ 7.30	6.30 to 7.30	6.30 to 7.30	6.30 to 7.30	6.30 to 7.30	CCc1cc(Nc2ncc(Br)c(Nc3ccc4nccnc4c3N(C)S(=O)(=O)C3CC3)n2)c(OC(F)(F)F)cc1N1CCC(N2CCN(C)CC2)CC1 [Compound I-106]
≥ 7.30	≥ 7.30	≥ 7.30	≥ 7.30	6.30 to 7.30	6.30 to 7.30	CCc1cc(Nc2ncc(Br)c(Nc3ccc4nccnc4c3N(C)S(=O)(=O)C3CC3)n2)c(OC)cc1N1CCC(N(C)C)C1 (stereo not drawn) [Compound I-108]
